Experimental data published in patent publication US9688624B2, “DP2 antagonist and uses thereof” (Brickell Biotech, Inc., priority 2010, dated 2017).
Structures can show the parent of a compound that is named as a salt. Where two headings read alike, the source gives them in different places.

Experiments:
[1] = system: smoke-induced pulmonary inflammation; assay: Mouse smoke model of chronic obstructive pulmonary disease; type: in vivo; settings: 10 and 50 mg/kg PO daily
Protocol: Example 21: Mouse Smoke Model of Chronic Obstructive Pulmonary Disease
A mouse model of acute cigarette smoke exposure was used to determine the effects of Compound 1 on smoke-induced pulmonary inflammation.
BALB/c mice were exposed to the smoke of 7 unfiltered cigarettes per day via whole-body exposure on days 0, 1, and 2 for a total of 1.75 hours per day. […] The plasma concentrations for Compound 1 measured at trough were 85 and 588 nM at 10 mg/kg and 50 mg/kg, respectively.

[2] = Phase I single ascending dose study in humans, pharmacokinetics; type: in vivo, human; settings: for half-life / AUC(0-inf) / AUC(0-t) / Cmax / Tmax / Vd/F: human, plasma; for Vd/F: read-out: Vz/F
Text: Example 22: Phase I Study in Humans
This is a phase 1, Single-Center, Double-Blind Study of Compound 2 in healthy volunteers.
To assess: (1) the safety and tolerability of single and multiple doses of Compound 2 following oral administration; and (2) the pharmacokinetics (PK) of Compound 2 after single and multiple doses; and (3) the effects of the pharmacodynamic (PD) responses in healthy subjects to Compound 2 as measured by a PGD2-induced eosinophil shape change assay (ESC).
The Single Ascending Dose (SAD) study will include 6 cohorts with 8 subjects each, 6 receiving the active treatment and 2 receiving the placebo. The SAD study will explore doses of 5, 15, 50, 150, 300 and 500 mg/day. Compound 2 (Pattern 1) is administered as API in a Capsule, prepared on site at the clinical pharmacy (see Example 10). Safety monitoring will include: a “how do you feel” (HDYF) question, adverse events reporting, physical examinations, vital signs, ECG's, and a biological assessment (clinical chemistry, hematology and urinalysis). The decision to escalate to the next dose level will be based on the results of medical monitoring, and a blinded interim analysis of pharmacokinetic parameters (AUC, Cmax) and pharmacodynamic responses. Doses may be adjusted based on the occurrence of adverse events. Subjects will be followed on site for 72 hours after dose administration.
The plasma concentrations of Compound 1 are determined by LC-MS/MS, giving a detection limit of 0.25 ng*mL^−1.
Pharmacokinetic measurements of Compound 2 includes measurement of the protonated form (Compound 1).

DP2 receptor = DP2 receptor (Homo sapiens (Human), UniProt Q9Y5Y4); assay: In vitro whole blood eosinophil shape change (ESC) assay, PGD2-induced; type: cell-based
DP2 receptor, sequence (Q9Y5Y4 whole entry): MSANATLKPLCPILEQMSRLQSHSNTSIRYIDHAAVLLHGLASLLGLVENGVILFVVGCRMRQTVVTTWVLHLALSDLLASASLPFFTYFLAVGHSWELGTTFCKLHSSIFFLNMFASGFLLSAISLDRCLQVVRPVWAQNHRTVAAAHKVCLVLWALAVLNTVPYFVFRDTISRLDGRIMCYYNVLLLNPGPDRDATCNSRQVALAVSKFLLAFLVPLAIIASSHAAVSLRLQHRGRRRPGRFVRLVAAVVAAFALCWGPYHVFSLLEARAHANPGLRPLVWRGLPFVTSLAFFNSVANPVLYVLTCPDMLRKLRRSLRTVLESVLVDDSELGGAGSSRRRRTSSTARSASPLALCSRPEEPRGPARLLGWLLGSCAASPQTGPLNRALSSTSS
Protocol: Example 17: In Vitro Whole Blood Esoinophil Shape Change Assay
Compound 1 was evaluated in a whole blood assay of eosinophil shape change (ESC) to determine the ability of Compound 1 to antagonize a PGD2-stimulated functional response in the context of whole blood.
Blood is drawn from consenting human volunteers in EDTA vacutainer tubes and used within 1 hr of draw. A 98 μl aliquot of blood is mixed with 2 μl of Compound 1 (in 50% DMSO) in 1.2 ml polypropylene tubes. The blood is vortexed and incubated at 37° C. for 5 minutes. 5 μl of 1 μM PGD2 in PBS is added for a final concentration of 50 nM and the tubes briefly vortexed. The reactions are incubated for exactly 5 minutes at 37° C. and then terminated by placing the tubes on ice and immediately adding 250 μl of ice-cold 1:4 diluted Cytofix (BD Biosciences). The reactions are transferred to […] polystyrene round bottom tubes and the red blood cells lysed by the addition of 3 ml ammonium chloride lysing solution (150 mM NH4C1, 10 mM KHCO3, 0.1 mM EDTA disodium salt) and incubation at room temperature for 15 minutes. The cells are pelleted by spinning at 1300 rpm for 5 minutes at 4° C. and washed once with 3 ml ice-cold PBS. The cells are resuspended in 0.2 ml of ice-cold 1:4 diluted Cytofix (BD Biosciences) and analyzed on a FACSCalibur (BD Biosciences) within 2 hours. Eosinophils were gated on the basis of autofluorescence in the FL2 channel and shape change on 500 eosinophils was assayed by forward scatter and side scatter analysis. The specific change in shape induced by PGD2 was calculated as the difference between the percentage of high forward scatter eosinophils in the presence and absence of PGD2. IC50s were determined using Graphpad Prism® analysis of drug titration curves.

[3] = Plasma exposure in satellite group of mouse allergic rhinitis model; type: in vivo; settings: Compound 2 10 mg/kg PO
Protocol: Compound 2 was evaluated in a mouse model of ovalbumin (OVA)-induced allergic rhinitis in which nasal ovalbumin challenges to OVA-primed mice elicits an increase in sneezing and nasal rubs (Methods were adapted from those detailed in Nakaya, M., et al. 2006, Laboratory Investigation, 86:917-926). OVA-primed mice received an intranasal challenge of OVA daily for 5 consecutive days. The number of sneezes and nasal rubs were counted over an 8 minute recording session on days 1, 3 and 5 immediately following OVA challenge. OVA caused a significant increase in both sneezing behavior and nasal rubs when compared to intranasal phosphate buffered saline (PBS) challenge. […] The plasma exposure for Compound 1 measured in a satellite group was 1360 nM, 460 nM, 210 nM and 90 nM for time points 1, 2, 4, and 6 hr post-dose, respectively.

[4] = single oral 5 mg capsule, healthy humans, mean
[5] = single oral 15 mg capsule, healthy humans, mean
[6] = single oral 50 mg capsule, healthy humans, mean
[7] = single oral 150 mg capsule, healthy humans, mean
[8] = single oral 300 mg capsule, healthy humans, mean
[9] = single oral 500 mg capsule, healthy humans, mean

## COc1ccc(CC(=O)O)cc1Oc1ccc(NC(=O)C(C)(C)C)cc1CSC(C)(C)C [Compound 2, 2-(3-(2-((tert-butylthio)methyl)-4-(2,2-dimethyl-propionylamino)phenoxy)-4-methoxyphenyl)acetic acid, sodium salt]
[1]
  BALF lymphocytes: trend toward reducing
  decrease of BALF neutrophils compared to the untreated group: approx. 50%
[2]; oral, humans, 150 and 500 mg dose, read-out: long elim. t1/2
  half-life: ≤ 18 h
[2]; oral, humans, SAD study, read-out: half life, increases with dose
  half-life: 1.2 to 7 h
[2]; [4]
  AUC(0-inf): 6.2 ng·h/mL
  AUC(0-t): 4.85 ng·h/mL
  Cmax: 2.69 ng/mL
  Tmax: 0.542 h
  Vd/F: 1470 L
  CL/F: 886 L/h
  λz: 0.598 h⁻¹
[2]; single oral 5 mg capsule, healthy humans, mean, read-out: t1/2 (converted)
  half-life: 1.22 h
[2]; [5]
  AUC(0-inf): 17.5 ng·h/mL
  AUC(0-t): 17 ng·h/mL
  Cmax: 8.31 ng/mL
  Tmax: 0.625 h
  Vd/F: 1760 L
  CL/F: 982 L/h
  λz: 0.574 h⁻¹
[2]; single oral 15 mg capsule, healthy humans, mean, read-out: t1/2 (converted)
  half-life: 1.23 h
[2]; [6]
  Cmax: 93.4 ng/mL
  Tmax: 1.2 h
  Vd/F: 1500 L
  CL/F: 643 L/h
  λz: 0.485 h⁻¹
[2]; single oral 50 mg capsule, healthy humans, mean, read-out: t1/2 (converted)
  half-life: 1.49 h
[2]; [7]
  AUC(0-inf): 3460 ng·h/mL
  AUC(0-t): 3450 ng·h/mL
  Cmax: 4630 ng/mL
  Tmax: 0.542 h
  Vd/F: 1410 L
  CL/F: 161 L/h
  λz: 0.130 h⁻¹
[2]; single oral 150 mg capsule, healthy humans, mean, read-out: t1/2 (converted)
  half-life: 7.86 h
[2]; [8]
  AUC(0-inf): 6980 ng·h/mL
  AUC(0-t): 6970 ng·h/mL
  Cmax: 6690 ng/mL
  Tmax: 0.92 h
  Vd/F: 351 L
  CL/F: 53.4 L/h
  λz: 0.19 h⁻¹
[2]; single oral 300 mg capsule, healthy humans, mean, read-out: t1/2 (converted)
  half-life: 6.32 h
[2]; [9]
  AUC(0-inf): 26000 ng·h/mL
  AUC(0-t): 26000 ng·h/mL
  Cmax: 25700 ng/mL
  Tmax: 0.583 h
  Vd/F: 501 L
  CL/F: 21.8 L/h
  λz: 0.0904 h⁻¹
[2]; single oral 500 mg capsule, healthy humans, mean, read-out: t1/2 (converted)
  half-life: 14.1 h

## COc1ccc(CC(=O)O)cc1Oc1ccc(NC(=O)C(C)(C)C)cc1CSC(C)(C)C [Compound 1, 2-(3-(2-((tert-butylthio)methyl)-4-(2,2-dimethyl-propionylamino)phenoxy)-4-methoxyphenyl)acetic acid]
DP2 receptor
  IC90: 5.5 nM
DP2 receptor; average, 50 nM PGD2, read-out: IC50, PGD2-induced eosinophil shape change in human whole blood
  IC50: 1.5 nM
DP2 receptor; same value expressed in ng/mL
  IC90: 2.6 ng/mL
DP2 receptor; same value expressed in ng/mL, read-out: IC50, human ESC (converted)
  IC50: 1.52 nM
[3]; 1 hr post-dose
  concentration at 1 h: 1360 nM
[3]; 2 hr post-dose, read-out: plasma exposure for Compound 1
  concentration at 2 h: 460 nM
[3]; 4 hr post-dose, read-out: plasma exposure for Compound 1
  concentration at 4 h: 210 nM
[3]; 6 hr post-dose, read-out: plasma exposure for Compound 1
  concentration at 6 h: 90 nM
